# According to patent US20240140991A1, “ANTIBIOTIC NATURAL PRODUCT ANALOGUES” (THE QUEEN'S UNIVERSITY OF BELFAST, priority 2021, published 2024):
# Positions of bridges follow the written chain, without caps; N, C: chain ends. Non-standard residues stand in square brackets, D forms with d. Residues, ends and D or L forms follow the SMILES beside them. ξ: configuration not given here. *: point of attachment. Palmitoyl = CCCCCCCCCCCCCCCC(=O)*; Hexanoyl(4ξ-Me) = CCC(C)CCC(=O)*; Myristoyl = CCCCCCCCCCCCCC(=O)*; Lauroyl = CCCCCCCCCCCC(=O)*; dOrn = NCCC[C@@H](N)C(=O)O; Octanoyl = CCCCCCCC(=O)*; Orn = NCCC[C@H](N)C(=O)O; Dap = NC[C@H](N)C(=O)O; Hexanoyl = CCCCCC(=O)*; Alloc = C=CCOC(=O)*; Butyryl = CCCC(=O)*
# Key:
# E. Coli NCTC 12241 = format: cell-based
# Experimental: (§1) Minimum inhibitory concentration (MIC) was determined by broth microdilution according to CLSI guidelines. Blood agar plates were inoculated with glycerol stocks of Escherichia coli ATCC 25922, E. coli ATCC 25922 MCR-1, E. coli MCR-1 (clinical isolate from Utrecht Medical Center, NL), E. coli EQAS MCR-2 (clinical isolate from Wageningen University and Research, NL), Kiebsielia pneumoniae ATCC 11228, K. pneumoniae ATCC 13883, K. pneumonia 2048 (clinical isolate from Vrije Universiteit Amsterdam Medical Center, NL), K. pneumonia JS-123 (clinical isolate from Utrecht Medical Center, NL), Acinetobacter baumannii ATCC 17961, A. baumannil ATCC 17978, A. baumannii 2018-006 (clinical isolate from Rijksinstituut voor Volksgezondheid en Milieu, NL), A. baumannii MDR (clinical isolate from Vrije Universiteit Amsterdam Medical Center, NL), Pseudomonas aeruginosa ATCC 27853, P. aeruginosa PAO1, P. aeruginosa NRZ-03961 (Reference strain from Das Nationale Referenzzentrum für gramnegative Krankenhauserreger, DE), P. aeruginosa M-120 (clinical isolate from Leiden University Medical Center, NL) and Staphylococcus aureus USA300 (clinical isolate from Texas Children's Hospitalm, USA). E. coli 25922 MCR1 was grown on LB agar supplemented with kanamycin. The inoculated agar plates were then incubated for 16 hours at 37° C. Individually grown colonies were subsequently used to inoculate 3 mL aliquots of TSB that were then incubated at 37° C. with shaking at 220 rpm. In parallel, the compounds to be assessed were serially diluted with Mueller-Hinton broth (MHB) in polypropylene 96-well plates (50 μL in each well). Once the OD600 of the bacterial suspensions reached 0.5, the bacteria were diluted with MHB (final concentration 2×10^5 CFU mL^−1) and added to the microplates containing the test compounds (50 μL to each well, final volume: 100 μL). The well-plates were sealed with an adhesive membrane and after 16 hours of incubation at 37° C. with shaking at 220 rpm the wells were visually inspected for bacterial growth. MIC values were defined as the lowest concentration of the compound that prevented visible growth of bacteria.
# were tested for inhibition of E. Coli NCTC 12241.
# E. coli = format: cell-based
# Experimental: as §1
# MIC values were determined for the lipid analogues of brevicidine.
# MIC values were determined for the position 9 analogues of linear brevicidine.
# A. baumannii ATCC 17978 = format: cell-based, Acinetobacter baumannii; conditions: ATCC 17978
# Experimental: as §1
# P. aeruginosa PAO1 = format: cell-based, Pseudomonas aeruginosa; conditions: PAO1
# Experimental: as §1
# [1] = tested on: Escherichia coli ATCC 25922; format: cell-based; conditions: ATCC 25922
# Summary of the method: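 Broth microdilution in MHB per CLSI; inoculum 2×10^5 CFU mL^−1 from log-phase TSB cultures at OD600 0.5. Plates incubated 16 hours at 37° C with shaking at 220 rpm. MIC is the lowest concentration preventing visible growth.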
# K. pneumoniae ATCC 11228 = format: cell-based, Klebsiella pneumoniae; conditions: ATCC 11228
# Experimental: as §1
smiles,measurement,setting,value
CCC(C)CCC(=O)N[C@H](CC(N)=O)C(=O)N[C@H](Cc1ccc(O)cc1)C(=O)N[C@H](Cc1c[nH]c2ccccc12)C(=O)N[C@H](CCCN)C(=O)N[C@@H](CCCN)C(=O)NCC(=O)N[C@H](CCCN)C(=O)N[C@@H](Cc1c[nH]c2ccccc12)C(=O)N[C@@H](CO)C(=O)N[C@H](C(=O)NCC(N)=O)[C@@H](C)CC (stereo partly shown) [Und(9-Ser)-NH2] ({Hexanoyl(4ξ-Me)}-[dN][dY][dW][dOrn][Orn]G[dOrn]WSIG-NH2),E. coli MIC,E. Coli NCTC 12241,0.78 µg/mL
same,E. coli MIC,E. coli,0.78 µg/mL
C=CCOC(=O)NC[C@H](NC(=O)[C@H](Cc1c[nH]c2ccccc12)NC(=O)[C@@H](CCCN)NC(=O)CNC(=O)[C@H](CCCN)NC(=O)[C@@H](CCCN)NC(=O)[C@@H](Cc1c[nH]c2ccccc12)NC(=O)[C@@H](Cc1ccc(O)cc1)NC(=O)[C@@H](CC(N)=O)NC(=O)CCC(C)CC)C(=O)N[C@H](C(=O)NCC(N)=O)[C@@H](C)CC (stereo partly shown) [MeHex- Dap(Alloc) NH2] ({Hexanoyl(4ξ-Me)}-[dN][dY][dW][dOrn][Orn]G[dOrn]W[Dap](Alloc)IG-NH2),E. coli MIC,E. Coli NCTC 12241,0.19 µg/mL
CCC(C)CCC(=O)N[C@H](CC(N)=O)C(=O)N[C@H](Cc1ccc(O)cc1)C(=O)N[C@H](Cc1c[nH]c2ccccc12)C(=O)N[C@H](CCCN)C(=O)N[C@@H](CCCN)C(=O)NCC(=O)N[C@H](CCCN)C(=O)N[C@@H](Cc1c[nH]c2ccccc12)C(=O)N[C@H](C(=O)N[C@H](C(=O)NCC(N)=O)[C@@H](C)CC)[C@@H](C)O (stereo partly shown) [Und(9-Thr)-NH2] ({Hexanoyl(4ξ-Me)}-[dN][dY][dW][dOrn][Orn]G[dOrn]WTIG-NH2),E. coli MIC,E. Coli NCTC 12241,1.56 µg/mL
same,E. coli MIC,E. coli,1.56 µg/mL
C=CCOC(=O)NC[C@H](NC(=O)[C@H](Cc1c[nH]c2ccccc12)NC(=O)[C@@H](CCCN)NC(=O)CNC(=O)[C@H](CCCN)NC(=O)[C@@H](CCCN)NC(=O)[C@@H](Cc1c[nH]c2ccccc12)NC(=O)[C@@H](Cc1ccc(O)cc1)NC(=O)[C@@H](CC(N)=O)NC(=O)CCCCCCC)C(=O)N[C@H](C(=O)NCC(N)=O)[C@@H](C)CC [Oct Dap(Alloc) NH2] (Octanoyl-[dN][dY][dW][dOrn][Orn]G[dOrn]W[Dap](Alloc)IG-NH2),E. coli MIC,E. Coli NCTC 12241,0.4 µg/mL
CCCCCCCCCCCCCCCC(=O)N[C@H](CO)C(=O)N[C@H](Cc1ccc(O)cc1)C(=O)N[C@H](Cc1c[nH]c2ccccc12)C(=O)N[C@H](CCCN)C(=O)N[C@@H](CCCN)C(=O)NCC(=O)N[C@H](CCCN)C(=O)N[C@@H](Cc1c[nH]c2ccccc12)C(=O)N[C@@H]1C(=O)N[C@@H]([C@@H](C)CC)C(=O)N[C@@H](CC(N)=O)C(=O)NCC(=O)NCC(=O)O[C@@H]1C [Compound C16] (Palmitoyl-[dS][dY][dW][dOrn][Orn]G[dOrn]WTINGG; ester 9-C),Minimum inhibitory concentration (MIC),A. baumannii ATCC 17978,4 to 8 µg/mL
same,Minimum inhibitory concentration (MIC),P. aeruginosa PAO1,64 µg/mL
same,Minimum inhibitory concentration (MIC),[1],64 µg/mL
same,Minimum inhibitory concentration (MIC),K. pneumoniae ATCC 11228,32 µg/mL
C=CCOC(=O)NC[C@H](NC(=O)[C@H](Cc1c[nH]c2ccccc12)NC(=O)[C@@H](CCCN)NC(=O)CNC(=O)[C@H](CCCN)NC(=O)[C@@H](CCCN)NC(=O)[C@@H](Cc1c[nH]c2ccccc12)NC(=O)[C@@H](Cc1ccc(O)cc1)NC(=O)[C@@H](CC(N)=O)NC(=O)CCC(C)CC)C(=O)N[C@H](C(=O)NCC(=O)O)[C@@H](C)CC (stereo partly shown) [MeHex- Dap(Alloc) OH] ({Hexanoyl(4ξ-Me)}-[dN][dY][dW][dOrn][Orn]G[dOrn]W[Dap](Alloc)IG-OH),E. coli MIC,E. Coli NCTC 12241,1.6 µg/mL
C=CCOC(=O)NC[C@H](NC(=O)[C@H](Cc1c[nH]c2ccccc12)NC(=O)[C@@H](CCCN)NC(=O)CNC(=O)[C@H](CCCN)NC(=O)[C@@H](CCCN)NC(=O)[C@@H](Cc1c[nH]c2ccccc12)NC(=O)[C@@H](Cc1ccc(O)cc1)NC(=O)[C@@H](CC(N)=O)NC(=O)CCCCCCC)C(=O)N[C@H](C(=O)NCC(=O)O)[C@@H](C)CC [Oct- Dap(Alloc) OH] (Octanoyl-[dN][dY][dW][dOrn][Orn]G[dOrn]W[Dap](Alloc)IG-OH),E. coli MIC,E. Coli NCTC 12241,12.5 µg/mL
CCC(C)CCC(=O)N[C@H](CC(N)=O)C(=O)N[C@H](Cc1ccc(O)cc1)C(=O)N[C@H](Cc1c[nH]c2ccccc12)C(=O)N[C@H](CCCN)C(=O)N[C@@H](CCCN)C(=O)NCC(=O)N[C@H](CCCN)C(=O)N[C@@H](Cc1c[nH]c2ccccc12)C(=O)N[C@@H](C)C(=O)N[C@H](C(=O)NCC(=O)O)[C@@H](C)CC (stereo partly shown) [MeHex- Ala OH] ({Hexanoyl(4ξ-Me)}-[dN][dY][dW][dOrn][Orn]G[dOrn]WAIG-OH),E. coli MIC,E. Coli NCTC 12241,50 µg/mL
CCCCCCCCCCCCCC(=O)N[C@H](CO)C(=O)N[C@H](Cc1ccc(O)cc1)C(=O)N[C@H](Cc1c[nH]c2ccccc12)C(=O)N[C@H](CCCN)C(=O)N[C@@H](CCCN)C(=O)NCC(=O)N[C@H](CCCN)C(=O)N[C@@H](Cc1c[nH]c2ccccc12)C(=O)N[C@@H]1C(=O)N[C@@H]([C@@H](C)CC)C(=O)N[C@@H](CC(N)=O)C(=O)NCC(=O)NCC(=O)O[C@@H]1C [Compound C14] (Myristoyl-[dS][dY][dW][dOrn][Orn]G[dOrn]WTINGG; ester 9-C),Minimum inhibitory concentration (MIC),A. baumannii ATCC 17978,4 µg/mL
same,Minimum inhibitory concentration (MIC),P. aeruginosa PAO1,8 µg/mL
same,Minimum inhibitory concentration (MIC),[1],8 µg/mL
same,Minimum inhibitory concentration (MIC),K. pneumoniae ATCC 11228,8 µg/mL
CCCC(=O)N[C@H](CO)C(=O)N[C@H](Cc1ccc(O)cc1)C(=O)N[C@H](Cc1c[nH]c2ccccc12)C(=O)N[C@H](CCCN)C(=O)N[C@@H](CCCN)C(=O)NCC(=O)N[C@H](CCCN)C(=O)N[C@@H](Cc1c[nH]c2ccccc12)C(=O)N[C@@H]1C(=O)N[C@@H]([C@@H](C)CC)C(=O)N[C@@H](CC(N)=O)C(=O)NCC(=O)NCC(=O)O[C@@H]1C [Compound C4] (Butyryl-[dS][dY][dW][dOrn][Orn]G[dOrn]WTINGG; ester 9-C),Minimum inhibitory concentration (MIC),A. baumannii ATCC 17978,4 µg/mL
same,Minimum inhibitory concentration (MIC),P. aeruginosa PAO1,8 µg/mL
same,Minimum inhibitory concentration (MIC),[1],8 µg/mL
same,Minimum inhibitory concentration (MIC),K. pneumoniae ATCC 11228,8 µg/mL
CCCCCCCCCCCC(=O)N[C@H](CO)C(=O)N[C@H](Cc1ccc(O)cc1)C(=O)N[C@H](Cc1c[nH]c2ccccc12)C(=O)N[C@H](CCCN)C(=O)N[C@@H](CCCN)C(=O)NCC(=O)N[C@H](CCCN)C(=O)N[C@@H](Cc1c[nH]c2ccccc12)C(=O)N[C@@H]1C(=O)N[C@@H]([C@@H](C)CC)C(=O)N[C@@H](CC(N)=O)C(=O)NCC(=O)NCC(=O)O[C@@H]1C [Compound C12] (Lauroyl-[dS][dY][dW][dOrn][Orn]G[dOrn]WTINGG; ester 9-C),Minimum inhibitory concentration (MIC),A. baumannii ATCC 17978,2 µg/mL
same,Minimum inhibitory concentration (MIC),P. aeruginosa PAO1,4 µg/mL
same,Minimum inhibitory concentration (MIC),[1],4 µg/mL
same,Minimum inhibitory concentration (MIC),K. pneumoniae ATCC 11228,2 to 4 µg/mL
CCCCCC(=O)N[C@H](CO)C(=O)N[C@H](Cc1ccc(O)cc1)C(=O)N[C@H](Cc1c[nH]c2ccccc12)C(=O)N[C@H](CCCN)C(=O)N[C@@H](CCCN)C(=O)NCC(=O)N[C@H](CCCN)C(=O)N[C@@H](Cc1c[nH]c2ccccc12)C(=O)N[C@@H]1C(=O)N[C@@H]([C@@H](C)CC)C(=O)N[C@@H](CC(N)=O)C(=O)NCC(=O)NCC(=O)O[C@@H]1C [Compound C6] (Hexanoyl-[dS][dY][dW][dOrn][Orn]G[dOrn]WTINGG; ester 9-C),Minimum inhibitory concentration (MIC),A. baumannii ATCC 17978,1 µg/mL
same,Minimum inhibitory concentration (MIC),P. aeruginosa PAO1,1 to 2 µg/mL
same,Minimum inhibitory concentration (MIC),[1],1 to 2 µg/mL
same,Minimum inhibitory concentration (MIC),K. pneumoniae ATCC 11228,2 µg/mL
CCCCCCCC(=O)N[C@H](CC(N)=O)C(=O)N[C@H](Cc1ccc(O)cc1)C(=O)N[C@H](Cc1c[nH]c2ccccc12)C(=O)N[C@H](CCCN)C(=O)N[C@@H](CCCN)C(=O)NCC(=O)N[C@H](CCCN)C(=O)N[C@@H](Cc1c[nH]c2ccccc12)C(=O)N[C@@H](C)C(=O)N[C@H](C(=O)NCC(=O)O)[C@@H](C)CC [Oct- Ala OH] (Octanoyl-[dN][dY][dW][dOrn][Orn]G[dOrn]WAIG-OH),E. coli MIC,E. Coli NCTC 12241,25 µg/mL
CC[C@H](C)[C@@H]1NC(=O)[C@@H](NC(=O)[C@H](Cc2c[nH]c3ccccc23)NC(=O)[C@@H](CCCN)NC(=O)CNC(=O)[C@H](CCCN)NC(=O)[C@@H](CCCN)NC(=O)[C@@H](Cc2c[nH]c3ccccc23)NC(=O)[C@@H](Cc2ccc(O)cc2)NC(=O)[C@H](N)CO)[C@@H](C)OC(=O)CNC(=O)CNC(=O)[C@H](CC(N)=O)NC1=O [NH2] (H-[dS][dY][dW][dOrn][Orn]G[dOrn]WTINGG; ester 9-C),Minimum inhibitory concentration (MIC),A. baumannii ATCC 17978,>64 µg/mL
same,Minimum inhibitory concentration (MIC),P. aeruginosa PAO1,64 µg/mL
same,Minimum inhibitory concentration (MIC),[1],32 µg/mL
same,Minimum inhibitory concentration (MIC),K. pneumoniae ATCC 11228,>64 µg/mL
